In patent US20260191968A1, “PROTAC DEGRADERS OF MLLT1 AND/OR MLLT3” (DARK BLUE THERAPEUTICS LTD, priority 2024, published 2026):
pIC50: −log10 of the molar value.

Columns and labels:
MV4-11 cells = experiment: MV4-11 cellular proliferative assay, Assay Format A (CellTiter-Glo, 120 hours); assay type: cell-based; details: Homo sapiens
Procedure: An MV4-11 proliferation assay was used to test the ability of compounds to reduce cell viability. MV4-11 cells (ATCC #CRL9591) were grown in IMDM medium (11510596, Gibco) supplemented with 10% fetal bovine serum (F7524, Gibco) and 1% Penicillin/Streptomycin (15140-122, Gibco) at 37° C. with 5% CO2. Cells were seeded in 384-well Elplasia plates (4447, Corning) at a density of 50 cells/well and treated with vehicle (DMSO) or compounds (10 serial semi-log dilutions, 30 μM as top concentration).
After 120 hours of treatment, cells were incubated for 10 min at RT with the CellTiter-Glo (CTG) reagent (G7571, Promega). Measurement of the luminescence signal was performed on a microplate reader (Ensight, PerkinElmer). CTG reagent measures the amount of ATP, which is directly proportional to the number of cells, to determine the number of viable cells in culture.
The data were analysed as follows:
where x is the measured raw signal value of a well, (cr) is the median of the measured signal values for the Central Reference (DMSO) wells on a plate, (sr) is the median of the measured signal values for the Scale Reference (reference compound) wells on a plate.
where the experimental set-up assumes the Hill parameters in certain ranges: S0~Central Reference (CR) from normalization (=Bottom), Sinf~Scale Reference (SR) from normalization (=Top), nHill~1, AC50~within the measured concentration range.

MLLT1 = biological target: T1, MLLT1 (Homo sapiens, UniProt Q03111); experiment: MLLT1 degradation assay in MV4-11 cells (JESS chemiluminescent detection), three concentrations, 24 h; assay type: cell-based; details: with respect to DMSO control
T1 construct: host or cells: MV4-11
T1 sequence (Q03111 1-559): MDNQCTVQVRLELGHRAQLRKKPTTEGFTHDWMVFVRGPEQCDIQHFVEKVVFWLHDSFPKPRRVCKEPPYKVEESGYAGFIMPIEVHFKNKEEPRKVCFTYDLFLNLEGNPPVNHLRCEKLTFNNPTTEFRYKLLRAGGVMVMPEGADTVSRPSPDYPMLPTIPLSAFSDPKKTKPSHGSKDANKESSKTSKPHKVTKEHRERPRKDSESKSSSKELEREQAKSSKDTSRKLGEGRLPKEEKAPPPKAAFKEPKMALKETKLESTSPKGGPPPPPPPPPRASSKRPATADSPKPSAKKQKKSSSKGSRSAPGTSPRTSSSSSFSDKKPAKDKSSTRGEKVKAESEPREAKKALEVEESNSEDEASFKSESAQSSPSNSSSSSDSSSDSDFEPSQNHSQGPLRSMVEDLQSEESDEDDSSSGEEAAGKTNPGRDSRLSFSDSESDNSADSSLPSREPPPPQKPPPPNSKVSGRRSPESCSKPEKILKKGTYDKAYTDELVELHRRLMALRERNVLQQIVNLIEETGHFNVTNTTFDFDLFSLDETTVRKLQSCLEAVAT
How it was run: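 Read-out is % MLLT1 degradation versus DMSO, from band peak areas on a JESS chemiluminescent system. Cells (MV4-11) were exposed for 24 h at 37° C to three compound levels, 10, 100 and 1000 nM, in 0.1% DMSO.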

SMILES | pIC50 (MV4-11 cells) | MLLT1% Degradation @ 0.01 μM (MLLT1) | MLLT1% Degradation @ 0.1 μM (MLLT1) | MLLT1% Degradation @ 1 μM (MLLT1)
CN1CCC[C@@H]1c1cc2cnc(NC(=O)c3ccc(OCC#Cc4cccc5c4CN(C4CCC(=O)NC4=O)C5=O)cc3)cc2[nH]1 (stereo partly drawn) [Example 51, 4-((3-(2-(2,6-dioxopiperidin-3-yl)-1-oxoisoindolin-4-yl)prop-2-yn-1-yl)oxy)-N-(2-((R)-1-methylpyrrolidin-2-yl)-1H-pyrrolo[3,2-c]pyridin-6-yl)benzamide] | ≥ 7.00 | A (Category A: A ≥ 75% degradation) | A (Category A: A ≥ 75% degradation) | A (Category A: A ≥ 75% degradation)
CN1CCC[C@@H]1c1cc2cnc(NC(=O)c3ccc(OCC#Cc4cccc5c4CN(C4CCC(=O)NC4=O)C5=O)cc3F)cc2[nH]1 (stereo partly drawn) [Example 57, 4-((3-(2-(2,6-dioxopiperidin-3-yl)-1-oxoisoindolin-4-yl)prop-2-yn-1-yl)oxy)-2-fluoro-N-(2-((R)-1-methylpyrrolidin-2-yl)-1H-pyrrolo[3,2-c]pyridin-6-yl)benzamide] | ≥ 7.00 | A (Category A: A ≥ 75% degradation) | A (Category A: A ≥ 75% degradation) | A (Category A: A ≥ 75% degradation)
CN1CCC[C@@H]1c1cc2cnc(NC(=O)COCCCCNc3cccc4c3C(=O)N(C3CCC(=O)NC3=O)C4=O)cc2[nH]1 (stereo partly drawn) [Example 40, 2-(4-((2-(2,6-dioxopiperidin-3-yl)-1,3-dioxoisoindolin-4-yl)amino)butoxy)-N-(2-((R)-1-methylpyrrolidin-2-yl)-1H-pyrrolo[3,2-c]pyridin-6-yl)acetamide] | ≥ 7.00 | – | C (Category C: 25% ≤ C < 50% degradation) | B (Category B: 50% ≤ B < 75% degradation)
CN1CCC[C@@H]1c1cc2cnc(NC(=O)c3cccc(-c4cnn(CCCC5CCN(c6cccc7c6C(=O)N(C6CCC(=O)NC6=O)C7=O)CC5)c4)c3)cc2[nH]1 (stereo partly drawn) [Example 47, 3-(1-(3-(1-(2-(2,6-dioxopiperidin-3-yl)-1,3-dioxoisoindolin-4-yl)piperidin-4-yl)propyl)-1H-pyrazol-4-yl)-N-(2-((R)-1-methylpyrrolidin-2-yl)-1H-pyrrolo[3,2-c]pyridin-6-yl)benzamide] | ≥ 7.00 | C (Category C: 25% ≤ C < 50% degradation) | B (Category B: 50% ≤ B < 75% degradation) | A (Category A: A ≥ 75% degradation)
CN1CCC[C@@H]1c1cc2cnc(NC(=O)c3ccc(CCC4CCN(c5cccc6c5C(=O)N(C5CCC(=O)NC5=O)C6=O)CC4)cc3)cc2[nH]1 (stereo partly drawn) [Example 4, 4-(2-(1-(2-(2,6-dioxopiperidin-3-yl)-1,3-dioxoisoindolin-4-yl)piperidin-4-yl)ethyl)-N-(2-((R)-1-methylpyrrolidin-2-yl)-1H-pyrrolo[3,2-c]pyridin-6-yl)benzamide] | ≥ 7.00 | B (Category B: 50% ≤ B < 75% degradation) | A (Category A: A ≥ 75% degradation) | A (Category A: A ≥ 75% degradation)
CN1CCC[C@@H]1c1cc2cnc(NC(=O)CCCC3CCN(c4cccc5c4C(=O)N(C4CCC(=O)NC4=O)C5=O)CC3)cc2[nH]1 (stereo partly drawn) [Example 41, 4-(1-(2-(2,6-dioxopiperidin-3-yl)-1,3-dioxoisoindolin-4-yl)piperidin-4-yl)-N-(2-((R)-1-methylpyrrolidin-2-yl)-1H-pyrrolo[3,2-c]pyridin-6-yl)butanamide] | ≥ 7.00 | B (Category B: 50% ≤ B < 75% degradation) | B (Category B: 50% ≤ B < 75% degradation) | A (Category A: A ≥ 75% degradation)
CN1CCC[C@@H]1c1cc2cnc(NC(=O)CCCCCCNc3cccc4c3C(=O)N(C3CCC(=O)NC3=O)C4=O)cc2[nH]1 (stereo partly drawn) [Example 29, 7-{[2-(2,6-dioxopiperidin-3-yl)-1,3-dioxoisoindol-4-yl]amino}-N-{2-[(2R)-1-methylpyrrolidin-2-yl]-1H-pyrrolo[3,2-c]pyridin-6-yl}heptanamide] | ≥ 7.00 | D (Category D: D < 25% degradation) | C (Category C: 25% ≤ C < 50% degradation) | A (Category A: A ≥ 75% degradation)
CN1CCC[C@@H]1c1[nH]c2cc(NC(=O)CCCCCCNc3cccc4c3C(=O)N(C3CCC(=O)NC3=O)C4=O)ncc2c1Cl (stereo partly drawn) [Example 33, N-{3-chloro-2-[(2R)-1-methylpyrrolidin-2-yl]-1H-pyrrolo[3,2-c]pyridin-6-yl}-7-{[2-(2,6-dioxopiperidin-3-yl)-1,3-dioxoisoindol-4-yl]amino}heptanamide] | ≥ 7.00 | B (Category B: 50% ≤ B < 75% degradation) | A (Category A: A ≥ 75% degradation) | A (Category A: A ≥ 75% degradation)
CN1CCC[C@H]1c1cc2cnc(NC(=O)c3ccc(CCCNc4cccc5c4C(=O)N(C4CCC(=O)NC4=O)C5=O)cc3)cc2[nH]1 (stereo partly drawn) [Example 37, 4-(3-{[2-(2,6-dioxopiperidin-3-yl)-1,3-dioxoisoindol-4-yl]amino}propyl)-N-{2-[(2S)-1-methylpyrrolidin-2-yl]-1H-pyrrolo[3,2-c]pyridin-6-yl}benzamide] | ≥ 7.00 | B (Category B: 50% ≤ B < 75% degradation) | A (Category A: A ≥ 75% degradation) | A (Category A: A ≥ 75% degradation)
C[C@H](C#Cc1cccc2c1CN(C1CCC(=O)NC1=O)C2=O)Oc1ccc(C(=O)Nc2cc3[nH]c([C@H]4CCCN4C)cc3cn2)cc1 (stereo partly drawn) [Example 25, 4-(((2R)-4-(2-(2,6-dioxopiperidin-3-yl)-1-oxoisoindolin-4-yl)but-3-yn-2-yl)oxy)-N-(2-((R)-1-methylpyrrolidin-2-yl)-1H-pyrrolo[3,2-c]pyridin-6-yl)benzamide] | ≥ 7.00 | A (Category A: A ≥ 75% degradation) | A (Category A: A ≥ 75% degradation) | A (Category A: A ≥ 75% degradation)
CN1CCC[C@@H]1c1cc2cnc(NC(=O)c3ccc(CCCNc4cccc5c4C(=O)N(C4CCC(=O)NC4=O)C5=O)cc3)cc2[nH]1 (stereo partly drawn) [Example 36, 4-(3-{[2-(2,6-dioxopiperidin-3-yl)-1,3-dioxoisoindol-4-yl]amino}propyl)-N-{2-[(2R)-1-methylpyrrolidin-2-yl]-1H-pyrrolo[3,2-c]pyridin-6-yl}benzamide] | ≥ 7.00 | A (Category A: A ≥ 75% degradation) | A (Category A: A ≥ 75% degradation) | A (Category A: A ≥ 75% degradation)
CN1CCC[C@@H]1c1cc2cnc(NC(=O)c3ccc(OCCC#Cc4cccc5c4CN(C4CCC(=O)NC4=O)C5=O)cc3)cc2[nH]1 (stereo partly drawn) [Example 19, 4-((4-(2-(2,6-dioxopiperidin-3-yl)-1-oxoisoindolin-4-yl)but-3-yn-1-yl)oxy)-N-(2-((R)-1-methylpyrrolidin-2-yl)-1H-pyrrolo[3,2-c]pyridin-6-yl)benzamide] | ≥ 7.00 | B (Category B: 50% ≤ B < 75% degradation) | A (Category A: A ≥ 75% degradation) | A (Category A: A ≥ 75% degradation)
CN1CCC[C@@H]1c1cc2cnc(NC(=O)c3ccc(CCC#Cc4cccc5c4CN(C4CCC(=O)NC4=O)C5=O)cc3)cc2[nH]1 (stereo partly drawn) [Example 52, 4-(4-(2-(2,6-dioxopiperidin-3-yl)-1-oxoisoindolin-4-yl)but-3-yn-1-yl)-N-(2-((R)-1-methylpyrrolidin-2-yl)-1H-pyrrolo[3,2-c]pyridin-6-yl)benzamide] | ≥ 7.00 | A (Category A: A ≥ 75% degradation) | A (Category A: A ≥ 75% degradation) | B (Category B: 50% ≤ B < 75% degradation)
